Reference: patent US11186565B2, “Aromatic compound” (TAKEDA PHARMACEUTICAL COMPANY LIMITED, priority 2017, dated 2021)

Target: T1, human GPR40 (Homo sapiens, UniProt O14842)
T1 construct: expressed in transfected cells
Assay: Human GPR40 agonist activity with increase in intracellular Ca2+ concentration as an index
Type: cell-based
Conditions: test compound at final concentration 1 μM; CHO(dhfr−) cells stably expressing human GPR40; FLIPR Ca2+ fluorescence; 100% = 10 μM compound of WO 2015/020184 Example 153, 0% = DMSO
Protocol: Evaluation of Human GPR40 Agonist Activity with Increase in Intracellular Ca^2+ Concentration as an Index
CHO(dhfr−) cells that stably expressed human GPR40 were suspended in MEMα (Wako Pure Chemical Industries, Ltd.) containing 10% dialyzed serum (Thermo Fisher Scientific), 10 mM HEPES (Thermo Fisher Scientific), 100 U/mL penicillin, 100 μg/mL streptomycin (Wako Pure Chemical Industries, Ltd.), and plated on a 384 well black/clear cell culture plate at 10,000 cells/well. After culture overnight in a CO2 incubator at 37° C., the culture supernatant was removed, and loading buffer [Ca^2+ probe attached to Calcium Kit II-iCellux (DOJINDO) was dissolved in assay buffer (20 mM HEPES, 0.1% fatty acid-free BSA (Wako Pure Chemical Industries, Ltd.), 2.5 mM probenecid (DOJINDO)-containing HESS (Thermo Fisher Scientific))] was added at 30 μL/well. After leaving for 1 hr at room temperature under light shielding, assay buffer containing the test compound at a final concentration of 1 μM was added at 10 μL/well in fluorescence plate reader FLIPR Tetra (Molecular Devices), and the fluorescence amount was successively measured. Human GPR40 agonist activity was calculated using an increase in the intracellular Ca^2+ concentration as an index, wherein the activity of 10 μM of the compound of WO 2015/020184 (Example 153: 3-cyclopropyl-3-(2-((1-(2-((2-fluoro-2-methylpropyl)(4-methylpyridin-2-yl)carbamoyl)-5-methoxyphenyl)piperidin-4-yl)methoxy)pyridin-4-yl)propanoic acid) was 100%, and the activity when DMSO was added instead of the test compound was 0%.

T1 sequence (O14842 whole entry): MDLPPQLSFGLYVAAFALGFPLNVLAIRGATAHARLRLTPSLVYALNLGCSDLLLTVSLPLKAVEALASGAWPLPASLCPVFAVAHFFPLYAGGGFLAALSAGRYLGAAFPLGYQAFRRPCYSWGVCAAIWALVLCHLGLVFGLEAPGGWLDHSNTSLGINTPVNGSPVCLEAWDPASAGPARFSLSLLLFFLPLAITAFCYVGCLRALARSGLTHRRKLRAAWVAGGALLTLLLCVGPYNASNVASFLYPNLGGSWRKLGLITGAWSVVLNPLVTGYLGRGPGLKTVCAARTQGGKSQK

| Compound | activity (human GPR40 agonist activity) [%] |
| --- | --- |
| COc1ccc(C2CCN(CC(F)(F)F)CC2)c(O[C@H]2CC[C@H](Oc3cc(C(CC(=O)O)C4CC4)ccn3)CC2)c1 (stereo partly drawn) [Example 1, 3-cyclopropyl-3-(2-((trans-4-(5-methoxy-2-(1-(2,2,2-trifluoroethyl)piperidin-4-yl)phenoxy)cyclohexyl)oxy)pyridin-4-yl)propanoic acid] | 86 |
| COc1ccc(-c2cnc(OCC(F)(F)F)nc2)c(O[C@H]2CC[C@H](Oc3cc(C(CC(=O)O)C4CC4)ccn3)CC2)c1 (stereo partly drawn) [Example 3, 3-cyclopropyl-3-(2-((trans-4-(5-methoxy-2-(2-(2,2,2-trifluoroethoxy)pyrimidin-5-yl)phenoxy)cyclohexyl)oxy)pyridin-4-yl)propanoic acid] | 84 |
| COc1cc(N2CCC(COc3cc([C@@H](CC(=O)O)C4CC4)ccn3)CC2)c(C2CCN(CC(F)(F)F)CC2)cn1 [Example 4, (3S)-3-cyclopropyl-3-(2-((1-(2-methoxy-5-(1-(2,2,2-trifluoroethyl)piperidin-4-yl)pyridin-4-yl)piperidin-4-yl)methoxy)pyridin-4-yl)propanoic acid] | 110 |
| COc1cc(N2CCC(COc3cc([C@@H](CC(=O)O)C4CC4)ccn3)CC2)c(NCC(F)(F)C(F)(F)F)cn1 [Example 6, (3S)-3-cyclopropyl-3-(2-((1-(2-methoxy-5-((2,2,3,3,3-pentafluoropropyl)amino)pyridin-4-yl)piperidin-4-yl)methoxy)pyridin-4-yl)propanoic acid] | 106 |
| COc1ccc(-c2ccc(OC)nc2)c(O[C@H]2CC[C@H](Oc3cc(C(CC(=O)O)C4CC4)ccn3)CC2)c1 (stereo partly drawn) [Example 7, 3-cyclopropyl-3-(2-((trans-4-(5-methoxy-2-(6-methoxypyridin-3-yl)phenoxy)cyclohexyl)oxy)pyridin-4-yl)propanoic acid] | 80 |
